Experimental findings from publication PMC5859971 (Genes & Development, 2018) are described below.

Test [1] relates to splicing of Ad2.1 pre-mRNA substrate. Put plainly: In vitro splicing (IVS) assay, Ad2.1 substrate, HeLa S3 nuclear extracts, RT-qPCR. Format: biochemical, human. Conditions: Ad2.1 (strong) substrate. The source says:
(§1) A substrate competitive mechanism of action (MOA) would predict that weaker pre-mRNA substrates would be easier to inhibit than stronger substrates. To date, it has not been possible to evaluate substrate competition using traditional steady-state conditions because splicing reactions are thought to be single-turnover events in vitro, and therefore it is not possible to measure a KM for the pre-mRNA. […] Specifically, we engineered the strong in vitro splicing substrate Ad2.1 by enhancing the U2 snRNP base-pairing around the BPA found in the Ad2 substrate. We then engineered a weaker substrate, Ad2.2, by adding a decoy BPS lacking an extrahelical adenosine (Ad2.2) (Fig. 5A; Supplemental Vector NTI files; [Corrionero et al. 2011]). […] We then evaluated E7107 and several chemical probes to better understand their mechanism.
(§2) Figure 5. […] (A) Base-pairing logic for IVS substrates. (BPRS) Branch point recognition sequence in U2 snRNA; (BPS) the BPS in the pre-mRNA. The Ad2 gene BPS sequence (UACUUAU) was modified (UACUAAU) to strengthen the U2 base-pairing interactions flanking the BPA, leading to the Ad2.1 substrate (BPA in red). The Ad2.2 sequence has the same BPS as Ad2 but also contains a 5′ decoy BPS sequence (lacking an extrahelical adenine) that can base-pair with the BPRS. The decoy BPS and suboptimal BPS overlap, which gives U2 at least two possibilities for possible base pairing, as indicated. […] (B) RT-qPCR time-course data showing product formation over time. […] (C) Representative IC50 curves for compound 6 using the two different substrates (Ad2.1 and Ad2.2).
(§3) The Ad2-derived ([Pellizzoni et al. 1998]) sequence was cloned into the pGEM-3Z vector (Promega) using 5′ EcoRI and 3′ XbaI restriction sites. The Ad2 variant (Ad2.2) ([Seiler et al. 2018]) was cloned into pcDNA3.1(+) vector (Promega) using the same restriction sites. The plasmids were linearized using XbaI and used as DNA templates in the in vitro transcription reactions. The FtzΔi intron-less plasmid ([Luo and Reed 1999]) was linearized using EcoRI. All RNAs were in vitro transcribed and then purified using MegaScript T7 and MegaClear kits, respectively (Invitrogen). For splicing reactions used with the Ad2.2 substrate, […] reactions were prepared using 8 µg of nuclear extracts prepared from HeLa S3, a saturating excess of 2 ng of pre-mRNA substrate, 0.2 ng of FTZΔi, and varying concentrations of compounds or DMSO.
(In general: Quantitative PCR measures a nucleic acid by following its amplification.)

Test [2] deals with splicing of Ad2.2 pre-mRNA substrate. Put plainly: In vitro splicing (IVS) assay, Ad2.2 substrate, HeLa S3 nuclear extracts, RT-qPCR. Format: biochemical, human.
Source text: as §1, §2, §3

The target of test [3] is T1, SF3b subcomplex (SF3B1 residues 454–1304, SF3B3, PHF5A, SF3B5) (Homo sapiens, UniProt O75533+Q7RTV0).
T1 construct: SF3B1 was limited to the HEAT repeat domain from residues 454–1304 and cloned in-frame with an N-terminal Flag tag; Truncated SF3B1 and full-length SF3B3, PHF5A, and SF3B5 were synthesized; made in house; host or cells: SF21 insect cells (baculovirus, pFastBac1)
The test is described as follows: Microscale thermophoresis (MST) compound binding to SF3b subcomplex. Conditions: SF3b subcomplex bound to NTA-647 fixed at 10 nM. Here is the method: (§4) The four-protein complex composed of the HEAT repeats of SF3B1 (residues 454–1304) as well as full-length SF3B3, SF3B5, and PHF5A was coexpressed and purified from insect cells. This complex is necessary and sufficient for compound binding in a scintillation proximity assay (SPA) format ([Teng et al. 2017]).
(§5) The SF3b subcomplex was first titrated against a fixed concentration (25 nM) of fluorescent label (NTA-647) to determine the optimal concentrations of protein and label for the MST experiment. After 15 min of incubation at room temperature, samples were loaded into Monolith NT.115 capillaries, and MST analysis was performed using a Monolith NT.115Pico. […] For subsequent compound-binding experiments, the SF3b subcomplex bound to NTA-647 was fixed at 10 nM, and the compound was titrated from 50 µM to 3 pM. After 15 min of incubation, samples were loaded into capillaries, and analysis was performed as described previously.
Binding of E7107 to SF3b 4-protein complex by MicroScale Thermophoresis (MST). The complex is
labeled with the fluorescent dye NTA-647 and kept constant at 10 nM. E7107 was titrated and a KD of
3.6 nM was determined for the interaction.
(1 picture or pasted object on this page, not shown here)
For orientation: Microscale thermophoresis detects binding through changes in fluorescence in a small temperature gradient.

The target of test [4] is T2, PHF5A^Y36C mutant complex (Homo sapiens, UniProt O75533+Q7RTV0, Y36C).
T2 construct: SF3B1 was limited to the HEAT repeat domain from residues 454–1304 and cloned in-frame with an N-terminal Flag tag; Truncated SF3B1 and full-length SF3B3, PHF5A, and SF3B5 were synthesized; Flag (N); made in house; host or cells: SF21 insect cells (inferred to be made as the wild-type complex)
The test is described as follows: MST compound binding to PHF5A^Y36C mutant complex. Conditions: result in words. Here is the method: as §4, §5

Where “and” joins values, the source holds several entries; their conditions need not be identical. Equal entries are not always repeated. Entries after “also recorded” stand apart in the source; their conditions may differ.

T2 sequence (Q15393 whole entry, the tested form may be a part): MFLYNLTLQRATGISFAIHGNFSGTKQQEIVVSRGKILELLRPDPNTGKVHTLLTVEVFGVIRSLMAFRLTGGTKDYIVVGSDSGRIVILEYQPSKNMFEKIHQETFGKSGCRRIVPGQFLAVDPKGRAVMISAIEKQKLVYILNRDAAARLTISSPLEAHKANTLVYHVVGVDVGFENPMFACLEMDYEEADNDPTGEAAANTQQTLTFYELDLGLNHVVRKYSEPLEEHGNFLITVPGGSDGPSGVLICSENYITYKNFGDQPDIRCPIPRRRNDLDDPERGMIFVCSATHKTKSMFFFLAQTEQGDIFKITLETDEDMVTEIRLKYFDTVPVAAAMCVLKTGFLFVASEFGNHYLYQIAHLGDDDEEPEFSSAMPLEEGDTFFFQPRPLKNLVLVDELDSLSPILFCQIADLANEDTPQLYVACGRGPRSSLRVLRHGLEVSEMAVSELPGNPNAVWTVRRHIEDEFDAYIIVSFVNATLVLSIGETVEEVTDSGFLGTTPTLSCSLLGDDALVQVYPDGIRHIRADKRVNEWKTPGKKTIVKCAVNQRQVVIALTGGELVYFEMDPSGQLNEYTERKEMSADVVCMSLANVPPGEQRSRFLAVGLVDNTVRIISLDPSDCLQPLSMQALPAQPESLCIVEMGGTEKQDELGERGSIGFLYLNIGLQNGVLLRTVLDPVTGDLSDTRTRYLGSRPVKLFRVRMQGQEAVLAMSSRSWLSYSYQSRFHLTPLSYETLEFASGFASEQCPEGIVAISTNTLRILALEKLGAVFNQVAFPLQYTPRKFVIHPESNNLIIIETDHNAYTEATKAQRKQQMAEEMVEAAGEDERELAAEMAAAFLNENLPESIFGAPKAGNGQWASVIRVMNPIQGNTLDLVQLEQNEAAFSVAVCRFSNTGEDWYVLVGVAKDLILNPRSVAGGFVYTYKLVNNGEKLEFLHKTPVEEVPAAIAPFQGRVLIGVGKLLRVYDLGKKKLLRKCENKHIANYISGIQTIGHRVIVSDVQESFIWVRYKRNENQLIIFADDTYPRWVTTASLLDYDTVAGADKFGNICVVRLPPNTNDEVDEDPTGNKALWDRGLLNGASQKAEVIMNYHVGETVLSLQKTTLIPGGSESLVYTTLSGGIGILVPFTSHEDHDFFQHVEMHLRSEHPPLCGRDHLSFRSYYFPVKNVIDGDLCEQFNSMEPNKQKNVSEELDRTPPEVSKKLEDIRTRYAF
T2 sequence (Q9BWJ5 whole entry, further chain, the tested form may be a part): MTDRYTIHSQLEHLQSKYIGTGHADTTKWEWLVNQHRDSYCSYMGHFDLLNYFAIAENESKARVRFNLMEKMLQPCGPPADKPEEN
T2 sequence (O75533 454-1304): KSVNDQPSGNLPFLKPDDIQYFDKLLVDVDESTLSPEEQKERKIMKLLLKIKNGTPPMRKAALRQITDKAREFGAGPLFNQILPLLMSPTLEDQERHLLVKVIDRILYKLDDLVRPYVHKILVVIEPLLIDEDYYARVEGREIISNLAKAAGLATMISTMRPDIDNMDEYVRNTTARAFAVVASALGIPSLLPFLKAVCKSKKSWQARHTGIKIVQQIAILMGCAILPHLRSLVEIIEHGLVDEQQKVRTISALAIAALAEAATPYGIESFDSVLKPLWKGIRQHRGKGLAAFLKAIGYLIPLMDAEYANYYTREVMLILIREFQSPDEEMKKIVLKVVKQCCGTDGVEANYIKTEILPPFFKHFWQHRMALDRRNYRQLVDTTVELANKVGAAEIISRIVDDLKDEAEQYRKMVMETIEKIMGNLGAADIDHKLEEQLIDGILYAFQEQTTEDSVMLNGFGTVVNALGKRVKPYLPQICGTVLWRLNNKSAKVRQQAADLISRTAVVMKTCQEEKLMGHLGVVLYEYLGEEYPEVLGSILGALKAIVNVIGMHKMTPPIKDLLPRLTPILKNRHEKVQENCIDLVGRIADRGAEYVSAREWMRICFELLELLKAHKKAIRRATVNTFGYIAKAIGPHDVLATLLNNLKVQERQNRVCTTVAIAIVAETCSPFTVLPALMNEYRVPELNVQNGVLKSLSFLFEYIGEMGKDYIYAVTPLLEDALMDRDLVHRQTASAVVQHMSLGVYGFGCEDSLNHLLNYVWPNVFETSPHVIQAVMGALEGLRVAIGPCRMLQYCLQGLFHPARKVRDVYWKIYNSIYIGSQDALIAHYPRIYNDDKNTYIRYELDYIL
T2 sequence (Q7RTV0 whole entry Y36C, the tested form may be a part): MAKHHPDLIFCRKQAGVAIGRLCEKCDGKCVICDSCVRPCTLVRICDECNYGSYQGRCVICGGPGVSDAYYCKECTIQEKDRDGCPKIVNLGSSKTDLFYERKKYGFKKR
T1 sequence (O75533 454-1304): as the sequence (O75533 454-1304) above
T1 sequence (Q9BWJ5 whole entry, further chain, the tested form may be a part): as the sequence (Q9BWJ5 whole entry, further chain, the tested form may be a part) above
T1 sequence (Q7RTV0 whole entry, the tested form may be a part): as the sequence (Q7RTV0 whole entry Y36C, the tested form may be a part) above, with C36Y counted along it
T1 sequence (Q15393 whole entry, further chain, the tested form may be a part): as the sequence (Q15393 whole entry, the tested form may be a part) above

What is called IC50 is the concentration at which inhibition is half-maximal. Lower therefore signals greater potency in that assay. Broadly, the Kd is a measure of binding affinity in units of concentration. On to `CCC(O)C(C)C1OC1CC(C)(O)C=CC=C(C)C1OC(=O)CC(O)CCC(C)(O)C(OC(=O)N2CCN(C3CCCCCC3)CC2)C=CC1C` (centres unmarked) [Compound E7107], for which the IC50 in test [1] was found to be 9.1 nM; in test [2] (Ad2.2 (weak) substrate), 9.9 nM. In addition, the “inhibition of strong and weak IVS substrates” value in test [2] (Ad2.1 and Ad2.2 substrates compared) is “inhibit both the strong and weak substrates equally well”. In addition, in test [3], the Kd was 3.6 nM and ~3.6 nM. For the same compound, in test [4], the “binding to PHF5A^Y36C mutant complex” value is recorded as “no binding was detected; also recorded: not able to bind”.
